Among the data in PubChem BioAssay AID1259418 (Broad Institute, 2018) are AC50 values, retold here.

Where “and” joins values, the source holds several entries; their conditions need not be identical. Equal values may be shown once. Inconclusive results are not listed. Calls of active or inactive are those of the source.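 How the source made its calls: active means fitted half-maximal concentration of signal decrease at or below twice the sample's top tested concentration; inconclusive means flat curve between -70 and -30 percent, or poor fit; inactive means flat within 30 percent, signal rise, or potency above limit.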 A value given as a limit tells only on which side of the number the result lay.

The assay deals with T. gondii ME49Luc in IFN-y HeLa, luciferase, 72 h. Put plainly: inhibitors of Toxoplasma growth in IFN-γ-primed HeLa – cell-based, ME49Luc, luciferase, 72 h, dose response (AID 1259418).
In general, AC50 refers to the midpoint of the concentration-response curve, whichever way the signal moves. In the case of `COc1ccc(C#Cc2ccc([C@H]3[C@@H](CO)N4C(=O)CN(C(=O)NC(C)C)C[C@@H]34)cc2)cc1`, the AC50 is 22.3 µM. Turning to `Cn1cc(-c2cnc(Nc3ccccc3)nc2)cc1C(=O)Nc1cccc(O)c1`, the AC50 is 23.6 µM. In the case of `COc1ccccc1-c1ccc([C@H]2[C@H](CO)N[C@@H]2C#N)cc1` it was 24 µM.

Take `CN1C(=O)c2cc(NC(=O)c3cccc(F)c3)ccc2OC[C@@H]2O[C@H](CC(=O)NCC3CCCCC3)CC[C@@H]21`: the AC50 was 18.6 µM and 22.1 µM. As to `COc1ccc(-c2nc(CN(c3ccccc3OC)S(=O)(=O)c3ccccc3)c(C)o2)cc1`, the AC50 was 7.78 µM.

With `COc1ccc(-c2nc(NC3CCCC3)c3ccccc3n2)cc1`, the AC50 is 35.8 µM. `Cc1cccc(-c2ccc([C@@H]3[C@@H](CO)N4C(=O)CN(C(=O)c5ccc6c(c5)OCO6)C[C@H]34)cc2)c1`: the AC50 is 18.8 µM. Take `CN1C(=O)CCc2cc(NC(=O)Cc3ccc(Cl)cc3)ccc21`: the AC50 was 23.8 µM. In the case of `CN1C(=O)c2cc(NC(=O)Cc3cccs3)ccc2OC[C@H]2O[C@@H](CC(=O)NCc3ccc(-c4ccccc4)cc3)CC[C@@H]21` it was 12.8 µM; in that of `CCOc1ccccc1-c1nc(CN(c2ccc(OC)cc2)S(=O)(=O)c2ccc(C)cc2)c(C)o1`, 10.7 µM. In the case of `O=C(c1ccc(-n2nc(C(F)(F)F)c3c2CCCC3)cc1)N1CCN(C2CCCCC2)CC1` it was 10.1 µM and > 39 µM (inactive). Consider `COc1cc(CN2C[C@@H]3N[C@H](C2)C3c2ccc(-c3ccc(C#N)cc3)cc2)cc(OC)c1` (some centres not stated), for which the AC50 is 6.02 µM and 7.29 µM and 16.7 µM.

In the case of `CN(C)C(=O)c1ccc(-c2ccc3c(c2)[C@H]2[C@H](CCN2C(=O)C2CCCC2)[C@@H](CO)N3C)cc1`, the AC50 was 18.8 µM.

In the case of `Cc1oc(-c2cccc(Cl)c2)nc1CN1CCc2c(sc3c2CCCC3)C1c1ccccc1` (configuration not stated), the AC50 was 6.85 µM. Take `COc1cccc(-c2nc3c(s2)CN(C(=O)Nc2ccc(Cl)cc2)CC3)c1`: the AC50 is > 20 µM (inactive). As for `COc1ccccc1NC(=O)N1CCCCN2[C@H](C1)[C@@H](c1ccc(-c3cccc(C#N)c3)cc1)[C@@H]2CO`, the figure is 21.1 µM; as for `Cc1cccc(-n2ncc3c(NCc4cccc(Cl)c4)ncnc32)c1`, 24.5 µM; as for `O=S(=O)(c1ccc2c(c1)CCCC2)N1CCC2(CC1)NCCN=C2NCc1ccc(F)cc1`, 9.4 µM. Regarding `Cc1ccc(Cn2c(CN3CCC(C(=O)NCCCN4CCCC4)CC3)cc3ccccc32)cc1`, the AC50 is 13.4 µM. As for `Cc1ccc(-c2nc3c(s2)CN(C(=O)Nc2ccc(C)cc2C)CC3)cc1`, the figure is 35 µM; as for `Cc1ccc(N(Cc2nc(-c3cccc(Cl)c3)oc2C)S(=O)(=O)c2cccs2)cc1`, 5.3 µM and 7.96 µM. As for `COc1ccccc1NC(=O)N1C[C@@H]2N[C@H](C1)C2c1ccc(/C=C/c2ccccc2)cc1` (some centres not stated), the figure is 6.84 µM and 4.45 µM and 4.22 µM. As for `O=C(CC1CC1)N1CC[C@@H]2[C@@H](CO)Nc3ccc(-c4ccc(F)cc4)cc3[C@@H]21`, the figure is 21.1 µM.

In the case of `CCOc1ccc(N(Cc2nc(-c3ccc(C)cc3)oc2C)S(=O)(=O)c2cccs2)cc1`, the AC50 is 5.31 µM.

Turning to `Cc1cccc(CNC2=NCCNC23CCN(S(=O)(=O)c2ccc(C(C)C)cc2)CC3)c1`, the AC50 is 13 µM.

As for `O=C(c1cnccn1)N1CC(=O)N2[C@H](CO)[C@H](c3ccc(/C=C/c4ccccc4)cc3)[C@@H]2C1`, the concentration at half-maximal activity (AC50) is 24.8 µM. Regarding `Cc1cccc(CN2CCC3(CC2)N=C(c2cccc(C)c2)C(=O)N3)c1`, the AC50 is > 20 µM (inactive). With `Cc1nc(CCNC(=O)[C@H]2CCCN2S(=O)(=O)c2ccccc2)cs1`, the AC50 was 32.3 µM.

For the compound `COc1ccc(S(=O)(=O)N2CSC[C@@H]2C(=O)NCCc2csc(-c3ccccc3)n2)cc1`, the AC50 was 17.6 µM. As for `Fc1ccccc1CSc1nc(NCc2ccccc2)c2ccccc2n1`, the figure is 17.9 µM; as for `Clc1ccc(-c2nc(NC3CCCC3)c3ccccc3n2)cc1`, 17.6 µM; as for `Cc1ccc(C(=O)N2CCC3(CC2)Nc2cc(F)ccc2-n2cccc23)cc1C`, > 39 µM (inactive). As for `O=C(Cc1ccccc1)N1CC(=O)N2[C@H](CO)[C@@H](c3ccc(-c4ccc(F)cc4)cc3)[C@H]2C1`, the figure is 22.2 µM; as for `CCOC(=O)c1nn(Cc2ccccc2)c2c1CN(C(=O)CN1CC(c3ccccc3)CC1=O)CC2` (configuration not stated), > 39 µM (inactive). As for `CCOc1ccc(-c2nc(CN3CCN(C(=O)Nc4ccc(C)cc4Cl)CC3)c(C)o2)cc1`, the figure is 24.1 µM. Regarding `COc1ccccc1N(Cc1nc(-c2ccc(C)cc2)oc1C)S(=O)(=O)c1ccccc1C`, the AC50 is 15.1 µM. `COc1cccc(S(=O)(=O)N2CCCCN3[C@H](CO)[C@@H](c4ccc(C#CCC(C)C)cc4)[C@@H]3C2)c1`: the AC50 is 5.58 µM and 10.4 µM and 10.5 µM.

As for `O=C(NCCCN1CCCC1)C1CCN(Cc2cc3ccccc3n2Cc2ccccc2)CC1`, the AC50 is 23 µM. For `Cc1oc(-c2cccc(Cl)c2)nc1CN(c1ccccc1)S(=O)(=O)c1ccccc1`, the AC50 is 6.63 µM. Take `N#Cc1ccc(-c2ccc([C@@H]3[C@@H]4CN(S(=O)(=O)Cc5ccccc5)C[C@H]3N4)cc2)cc1`: the AC50 was 6.55 µM and 15.5 µM.

Turning to `CCOc1ccc(-c2nc(CN(c3cccc(OC)c3)S(=O)(=O)c3ccccc3C)c(C)o2)cc1`, the AC50 was 34.5 µM. In the case of `O=C(CC1N=C2c3ccccc3N=C(SCc3ccc(F)cc3)N2C1=O)NCc1cccs1` (configuration not stated) it was 35 µM; in that of `CCOc1ccccc1N(Cc1nc(-c2ccc(OC)cc2)oc1C)S(=O)(=O)c1cccs1`, 7.45 µM.

With `Clc1ccc(-n2ncc3c(NCc4cccc(Cl)c4)ncnc32)cc1`, the AC50 is 16.9 µM.

For the compound `O=C(CC1CC1)N1CC[C@@H]2[C@H]1c1cc(-c3ccc(F)cc3)ccc1N[C@@H]2CO`, the AC50 is 19.7 µM. In the case of `Cc1ccc(S(=O)(=O)N2CCC3(CC2)NCCN=C3NCc2ccc3c(c2)OCO3)cc1C`, the concentration at half-maximal activity (AC50) was 22.4 µM. For the compound `COc1ccc(CN2C[C@@H]3C[C@H](C(=O)Nc4ccccc4)[C@@H](C2)O3)cc1`, the AC50 was > 39 µM (inactive). For the compound `Cc1cccc(-c2nc(Cn3nnc(-c4nc(-c5ccncc5)no4)c3C)c(C)o2)c1`, the AC50 was 8.63 µM. Consider `CCCCNC(=O)CC1N=C2c3ccccc3N=C(SCc3ccc(C)cc3)N2C1=O` (configuration not stated), for which the AC50 is 10.4 µM. As to `COc1cccc(NC(=O)N2CC(=O)N3[C@H](CO)[C@H](c4ccc(C#CCC5CCCC5)cc4)[C@@H]3C2)c1`, the AC50 is 17.6 µM. As for `CCN(c1ccccc1C)S(=O)(=O)c1cc2c3c(c1)CCC(=O)N3CCC2`, the AC50 was 13 µM.

Take `CCCNC(=O)c1cc(-c2ccn(CC3CC3)n2)n2ccccc12`: the AC50 is 26.9 µM. For `CCCNC(=O)N1CCN(Cc2nc(-c3ccc(C)cc3)oc2C)CC1`, the concentration at half-maximal activity (AC50) was 26.1 µM. As for `CCc1c(C)sc2c1CCN(Cc1nc(-c3cccc(C)c3)oc1C)C2c1ccccc1` (configuration not stated), the figure is 9.68 µM; as for `O=C(Nc1ccc2c(c1)OCO2)N1C[C@@H]2N[C@H](C1)C2c1ccc(C=Cc2ccccc2)cc1` (some centres not stated), 4.2 µM and 3.84 µM; as for `Cc1cc(C)c(S(=O)(=O)N2CCC[C@@H]2C(=O)NCCc2csc(C)n2)c(C)c1`, 31.9 µM.

Consider `CC(C)Cc1ccc(S(=O)(=O)N2CCC3(CC2)NCCN=C3NCc2ccc3c(c2)OCO3)cc1`, for which the AC50 was 5.76 µM.

For the compound `COc1ccc(C#Cc2ccc([C@@H]3[C@@H](CO)N4C(=O)CN(C(=O)NC(C)C)C[C@@H]34)cc2)cc1`, the AC50 is 20.4 µM.

With `O=C(c1cccc(F)c1)N1CC(=O)N2[C@H](CO)[C@H](c3ccc(/C=C/c4ccccc4)cc3)[C@@H]2C1`, the AC50 is 19.6 µM. On to `COc1ccccc1-c1nc(Cn2nnc(-c3nc(-c4ccc(C)cc4)no3)c2C)c(C)o1`, for which the AC50 was > 20 µM (inactive). Take `O=C(CC1N=C2c3ccccc3N=C(SCc3ccc(Cl)cc3)N2C1=O)NCCc1ccccc1` (configuration not stated): the AC50 is 20.4 µM. As for `COc1cc(OC)cc(C(=O)Nc2ccc(-c3nc(-c4ccc(C)cc4C)co3)cc2)c1`, the figure is 29.7 µM; as for `O=C(C[C@@H]1CC[C@@H]2[C@H](COC[C@@H](O)CN2S(=O)(=O)c2ccccc2)O1)NCC1CCCCC1`, 20.8 µM. As for `Cc1ccc(C)c(S(=O)(=O)N2CCC3(CC2)NCCN=C3NCc2ccccc2F)c1`, the figure is 28.5 µM; as for `CCOc1ccccc1C(=O)N1CCC2(CC1)Nc1ccc(Cl)cc1-n1cccc12`, 24.3 µM; as for `CC(=O)NC1=NN(C(C)=O)C(C)(c2ccccc2)S1` (configuration not stated), 11 µM and 6.03 µM.

Turning to `COc1cc2c(cc1O)CC[C@@H]1[C@@H]2CC[C@]2(C)[C@@H](O)CC[C@@H]12`, the AC50 is 1.99 µM and 4.21 µM. As for `COc1ccccc1NC(=O)N1C[C@H](O)COC[C@@H]2O[C@@H](CC(=O)N3CCC(Cc4ccccc4)CC3)CC[C@H]21`, the figure is 22.9 µM and > 39 µM (inactive); as for `COCCn1c(=S)[nH]c2cc(C(=O)N3CCC(O)(c4cccc(C(F)(F)F)c4)CC3)ccc2c1=O`, 34.1 µM. Take `O=C(Cc1ccccn1)N1CC(=O)N2[C@H](CO)[C@@H](c3ccc(C#CCC4CCCC4)cc3)[C@@H]2C1`: the AC50 is 9.77 µM and 15.5 µM.

`O=C(NCc1ccc(F)cc1F)c1cc(-c2cnc(N3CCCC3)nc2)cn1CC1CC1`: the AC50 was 13.2 µM.

In the case of `CCOc1ccccc1-c1nc(CN(c2ccccc2OC)S(=O)(=O)c2ccccc2C)c(C)o1`, the AC50 is 8.83 µM.

On to `CN(C)CCCNC(=O)c1cc(-c2cnc(-c3ccccc3)nc2)cn1C`, for which the half-maximal activity concentration (AC50) is 30.1 µM. As for `CCCCNC(=O)CCC1N=C2c3ccccc3N=C(SCc3ccc(Cl)cc3)N2C1=O` (configuration not stated), the figure is 17 µM; as for `Cc1ccccc1S(=O)(=O)N1CCCCN2[C@H](C1)[C@@H](c1ccc(C#CCN(C)C)cc1)[C@@H]2CO`, 20.9 µM; as for `O=C(NC1CCCC1)N1CCCCN2[C@H](CO)[C@H](c3ccc(-c4cccnc4)cc3)[C@H]2C1`, 24.1 µM. As for `CC(C)NC(=O)N1CC(=O)N2[C@H](CO)[C@@H](c3ccc(/C=C/c4ccccc4)cc3)[C@H]2C1`, the figure is 26.5 µM and 8.87 µM. In the case of `COc1ccc(CNC2=NCCNC23CCN(S(=O)(=O)c2ccc(Cl)s2)CC3)cc1` it was 3.91 µM; in that of `N#Cc1ccc(-c2ccc(C3[C@@H]4CN(C(=O)C5CCCCC5)C[C@H]3N4)cc2)cc1` (some centres not stated), 17.8 µM and 28.4 µM and 27.6 µM; in that of `COc1cccc(-c2nc(Cn3c(=O)c4c(C)cc(C)nc4n(-c4ccccc4)c3=O)c(C)o2)c1OC`, > 39 µM (inactive). Turning to `CCc1c(C)sc2c1CCN(Cc1nc(-c3cc(C)ccc3C)oc1C)C2c1ccccc1` (configuration not stated), the AC50 was 9.45 µM. With `O=C(NCCc1csc(-c2ccccc2)n1)C1CCN(C(=O)c2ccccc2Cl)CC1`, the AC50 was 25.8 µM.
